The values that follow come from patent publication US20040209933A1, “Oxazole derivatives” (priority 2003, published 2004).

One series deals with QG56 cells. The series is described as follows: BrdU/Hoechst quenching assay, cell kinetic FACS analysis (G1 cell cycle arrest). In kind it is cell-based. As to conditions: incubation for 24 h; for percentage of QG56 cells arrested in the first G1 phase, compared with reference compound: 3 μM; for n-fold increase of cells arrested in first cell cycle: compound concentration 3 μM, QG56 squamous cell carcinoma cells, Control (DMSO) = 1. Here is the method: A squamous cell carcinoma cell line (e.g. QG 56) was cultivated in DMEM/10%FCS/2 mM glutamine at about 60% confluency. Exponentially growing cells were seeded at a density of 1×10^4 cells/cm^2 in 2 ml of medium per 6 wells. After 24 hours medium was replaced and compounds were added.
For the BrdU/Hoechst quenching assay the media were supplemented with […] and deoxycytidine, respectively. All experiments were performed in 6 well culture plates.
The cell culture setup is as described above. All compounds were dissolved in DMSO at a concentration of 10 mM.
Adherent cells were harvested at 24 h by trypsinization and cells from the supernatant were added to the population.
After centrifugation cell pellets were resuspended at 1-10×10^5 cells/ml in DNA-staining puffer (100 mM Tris pH 7.4, 154 mM NaCl, 1 mM CaCl2, 0.5 mM MgCl2, 0.2% BSA, 0.1% NP40) supplemented with 5 ug/ml RNAse A and 1.5 ug/ml Hoechst 33258. After 15 min propidium iodide was added to a final concentration of 1.5 ug/ml for another 15 min. The fluorochrome labeled cells were analysed on a flow cytometer (BD LSR) applying dual laser excitation (UV and 488 nm).
Compounds of Example 1, Example 2 and Example 4 were tested at a concentration of 3 μM.

`COc1ccc(C=Cc2nc(COc3ccc(CCCCn4ccnn4)cc3)co2)cc1` [Example 1, 1-[4-(4-{2-[2-(4-Methoxy-phenyl)-vinyl]-oxazol-4-ylmethoxy}-phenyl)-butyl]-1H-[1,2,3]triazole] showed a melting point of 148 to 151 °C. Further, in the series on QG56 cells, the “percentage of QG56 cells arrested in the first G1 phase, compared with reference compound” value (“percentage of QG56 cells arrested” below) is “higher percentage” and the “n-fold increase of cells arrested in first cell cycle” value (“n-fold increase of cells arrested” for short) was 23.7 n-fold.

For the molecule `C(=Cc1nc(COc2ccc(CCCCn3ccnn3)cc2)co1)c1ccc2c(c1)OCO2` [Example 4, 1-(4-{4-[2-(2-Benzo[1,3]dioxol-5-yl-vinyl)-oxazol-4-ylmethoxy]-phenyl}-butyl)-1H-[1,2,3]triazole], in the series on QG56 cells, the “percentage of QG56 cells arrested” value was “higher percentage” and the “n-fold increase of cells arrested” value is 17.9 n-fold.

Consider `FC(F)(F)Sc1ccc(C=Cc2nc(COc3ccc(CCCCn4ccnn4)cc3)co2)cc1` [Example 5, 1-[4-(4-{2-[2-(4-Trifluoromethylsulfanyl-phenyl)-vinyl]-oxazol-4-ylmethoxy}-phenyl)-butyl]-1H-[1,2,3]triazole], for which the melting point lay in the range of 144 to 145 °C.

Turning to `FC(F)(F)c1ccc(C=Cc2nc(COc3ccc(CCCCn4ccnn4)cc3)co2)cc1` [reference compound, 1-[4-(4-{2-[2-(4-Trifluoromethyl-phenyl)-vinyl]-oxazol-4-ylmethoxy}-phenyl)-butyl]-1H-[1,2,3]triazole, reference compound], in the series with QG56 cells, the “n-fold increase of cells arrested” value came to 17.2 n-fold.

In turn, `FC(F)(F)Oc1ccc(C=Cc2nc(COc3ccc(CCCCn4ccnn4)cc3)co2)cc1` [Example 2, 1-[4-(4-{2-[2-(4-Trifluoromethoxy-phenyl)-vinyl]-oxazol-4-ylmethoxy}-phenyl)-butyl]-1H-[1,2,3]triazole] displayed a melting point of 138 to 140 °C. Moreover, in the series on QG56 cells, the “percentage of QG56 cells arrested” value was “higher percentage” and the “n-fold increase of cells arrested” value was determined as 19.2 n-fold.

For orientation: melting point means the temperature, or range, at which the solid turns liquid.
